According to patent US11040035B2, “3-oxo-2,6-diphenyl-2,3-dihydropyridazine-4-carboxamides” (BAYER PHARMA AKTIENGESELLSCHAFT, priority 2016, dated 2021):

How the values were obtained:
AHR [1] = target: T1, AHR (Homo sapiens, UniProt P35869); assay: In vitro assay 1: antagonism in human cell line (transactivation assay, kynurenic acid prestimulated); conditions: Assay 1: AHR-luc Hum Antagonism IC50 [M], 150 μM kynurenic acid, 20 hours, firefly luciferase
T1 sequence (P35869 11-848): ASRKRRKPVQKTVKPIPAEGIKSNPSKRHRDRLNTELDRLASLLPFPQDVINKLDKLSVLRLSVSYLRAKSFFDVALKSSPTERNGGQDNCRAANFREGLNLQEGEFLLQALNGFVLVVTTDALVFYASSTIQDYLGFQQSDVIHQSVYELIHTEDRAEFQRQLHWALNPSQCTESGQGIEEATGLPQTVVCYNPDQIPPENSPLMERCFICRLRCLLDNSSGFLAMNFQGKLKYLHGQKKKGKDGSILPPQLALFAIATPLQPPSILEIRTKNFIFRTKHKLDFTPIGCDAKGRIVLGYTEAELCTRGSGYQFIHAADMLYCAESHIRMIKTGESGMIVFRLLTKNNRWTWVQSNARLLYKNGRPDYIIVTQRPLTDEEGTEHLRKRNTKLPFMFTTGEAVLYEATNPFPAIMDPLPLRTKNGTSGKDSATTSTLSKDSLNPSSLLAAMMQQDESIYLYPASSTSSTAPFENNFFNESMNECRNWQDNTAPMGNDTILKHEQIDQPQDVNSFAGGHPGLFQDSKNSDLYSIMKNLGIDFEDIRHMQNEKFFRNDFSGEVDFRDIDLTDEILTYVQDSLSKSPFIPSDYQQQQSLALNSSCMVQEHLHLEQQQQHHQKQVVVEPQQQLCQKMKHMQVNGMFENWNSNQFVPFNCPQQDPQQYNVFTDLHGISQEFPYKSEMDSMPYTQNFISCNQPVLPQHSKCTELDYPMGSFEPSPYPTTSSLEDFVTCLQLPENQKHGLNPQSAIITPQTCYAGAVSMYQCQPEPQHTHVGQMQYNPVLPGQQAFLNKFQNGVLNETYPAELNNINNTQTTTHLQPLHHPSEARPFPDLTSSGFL

AHR [2] = target: T1, AHR; assay: In vitro assay 2: agonism in human cell line (transactivation assay); conditions: Assay 2: AHR-luc Hum Agonism IC50 [M], no kynurenic acid, 20 hours, firefly luciferase

IC50 (AHR [1])	IC50 (AHR [2])	Structure (SMILES)
1.87e-07 M	> 2e-05 M	O=C(NC(CO)C1CCOCC1)c1cc(-c2ccc(Cl)cc2)nn(-c2cccc(F)c2)c1=O (stereo not shown) [Example 149]
1.43e-07 M	> 2e-05 M	COC(=O)[C@H](CO)NC(=O)c1cc(-c2ccc(Cl)cc2)nn(-c2cccc(F)c2)c1=O [Example 153, Methyl N-{[6-(4-chlorophenyl)-2-(3-fluorophenyl)-3-oxo-2,3-dihydropyridazin-4-yl]carbonyl}-L-serinate]
1.7e-07 M	> 2e-05 M	C[C@@H](CO)NC(=O)c1cc(-c2ccc(OC(F)F)cc2)nn(-c2cccc(F)c2)c1=O [Example 155, 6-[4-(Difluoromethoxy)phenyl]-2-(3-fluorophenyl)-N-[(2S)-1-hydroxypropan-2-yl]-3-oxo-2,3-dihydropyridazine-4-carboxamide]
1.99e-07 M	> 2e-05 M	O=C(NC[C@H](O)CO)c1cc(-c2ccc(Cl)cc2)nn(-c2cccc(F)c2)c1=O [Example 156, 6-(4-Chlorophenyl)-N-[(2S)-2,3-dihydroxypropyl]-2-(3-fluorophenyl)-3-oxo-2,3-dihydropyridazine-4-carboxamide]
2.22e-07 M	> 2e-05 M	O=C(N[C@H](CO)C1CCCC1)c1cc(-c2ccc(Cl)cc2)nn(-c2cccc(F)c2)c1=O [Example 157, 6-(4-Chlorophenyl)-N-[(1S)-1-cyclopentyl-2-hydroxyethyl]-2-(3-fluorophenyl)-3-oxo-2,3-dihydropyridazine-4-carboxamide]
2.84e-07 M	> 2e-05 M	O=C(NC[C@@H](O)CO)c1cc(-c2ccc(Cl)cc2)nn(-c2cccc(F)c2)c1=O [Example 159, 6-(4-Chlorophenyl)-N-[(2R)-2,3-dihydroxypropyl]-2-(3-fluorophenyl)-3-oxo-2,3-dihydropyridazine-4-carboxamide]
3.11e-07 M	> 2e-05 M	COCC(O)CNC(=O)c1cc(-c2ccc(OC(F)F)cc2)nn(-c2cccc(F)c2)c1=O (stereo not shown) [Example 160, 6-[4-(Difluoromethoxy)phenyl]-2-(3-fluorophenyl)-N-(2-hydroxy-3-methoxypropyl)-3-oxo-2,3-dihydropyridazine-4-carboxamide]
3.15e-07 M	> 2e-05 M	O=C(N[C@@H](CO)Cc1cnc[nH]1)c1cc(-c2ccc(Cl)cc2)nn(-c2cccc(F)c2)c1=O [Example 161, 6-(4-Chlorophenyl)-2-(3-fluorophenyl)-N-[(2R)-1-hydroxy-3-(1H-imidazol-5-yl)propan-2-yl]-3-oxo-2,3-dihydropyridazine-4-carboxamide]
4.83e-07 M	> 2e-05 M	NC(=O)[C@H](CO)NC(=O)c1cc(-c2ccc(Cl)cc2)nn(-c2cccc(F)c2)c1=O [Example 162, N-[(2S)-1-Amino-3-hydroxy-1-oxopropan-2-yl]-6-(4-chlorophenyl)-2-(3-fluorophenyl)-3-oxo-2,3-dihydropyridazine-4-carboxamide]
4.98e-07 M	> 2e-05 M	NC(=O)CC(CO)NC(=O)c1cc(-c2ccc(Cl)cc2)nn(-c2cccc(F)c2)c1=O (stereo not shown) [Example 163, N-(4-Amino-1-hydroxy-4-oxobutan-2-yl)-6-(4-chlorophenyl)-2-(3-fluorophenyl)-3-oxo-2,3-dihydropyridazine-4-carboxamide]
> 2e-05 M	> 2e-05 M	O=C(N[C@@H](CO)C(=O)O)c1cc(-c2ccc(Cl)cc2)nn(-c2cccc(F)c2)c1=O [Example 165, N-{[6-(4-Chlorophenyl)-2-(3-fluorophenyl)-3-oxo-2,3-dihydropyridazin-4-yl]carbonyl}-L-serine]
3.33e-08 M	> 2e-05 M	O=C(NC(CO)C1CCOC1)c1cc(-c2ccc(OC(F)(F)F)cc2)nn(-c2cccc(F)c2)c1=O (stereo not shown) [Example 174, 2-(3-Fluorophenyl)-N-[2-hydroxy-1-(tetrahydrofuran-3-yl)ethyl]-3-oxo-6-[4-(trifluoromethoxy)phenyl]-2,3-dihydropyridazine-4-carboxamide]
7.36e-08 M	> 2e-05 M	CC(O)C(C)NC(=O)c1cc(-c2ccc(OC(F)(F)F)cc2)nn(-c2cccc(F)c2)c1=O (stereo not shown) [Example 179, 2-(3-Fluorophenyl)-N-(3-hydroxybutan-2-yl)-3-oxo-6-[4-(trifluoromethoxy)phenyl]-2,3-dihydropyridazine-4-carboxamide]
7.88e-08 M	> 2e-05 M	CC(C)(O)CNC(=O)c1cc(-c2ccc(Cl)cc2)nn(-c2cccc(F)c2)c1=O [Example 188, 6-(4-Chlorophenyl)-2-(3-fluorophenyl)-N-(2-hydroxy-2-methylpropyl)-3-oxo-2,3-dihydropyridazine-4-carboxamide]
1.04e-07 M	> 2e-05 M	O=C(NCC1(O)CC1)c1cc(-c2ccc(Cl)cc2)nn(-c2cccc(F)c2)c1=O [Example 196, 6-(4-Chlorophenyl)-2-(3-fluorophenyl)-N-[(1-hydroxycyclopropyl)methyl]-3-oxo-2,3-dihydropyridazine-4-carboxamide]
3.85e-07 M	> 2e-05 M	C[C@@H](O)CCNC(=O)c1cc(-c2ccc(Cl)cc2)nn(-c2cccc(F)c2)c1=O [Example 204, (−)-6-(4-Chlorophenyl)-2-(3-fluorophenyl)-N-[(3R)-3-hydroxybutyl]-3-oxo-2,3-dihydropyridazine-4-carboxamide]
2.12e-07 M	> 2e-05 M	C[C@H](O)CCNC(=O)c1cc(-c2ccc(Cl)cc2)nn(-c2cccc(F)c2)c1=O [Example 205, (+)-6-(4-Chlorophenyl)-2-(3-fluorophenyl)-N-[(3S)-3-hydroxybutyl]-3-oxo-2,3-dihydropyridazine-4-carboxamide]
8.32e-08 M	> 2e-05 M	O=C(NC1(CO)CCCC1)c1cc(-c2ccc(Cl)cc2)nn(-c2cccc(F)c2)c1=O [Example 214, 6-(4-Chlorophenyl)-2-(3-fluorophenyl)-N-[1-(hydroxymethyl)cyclopentyl]-3-oxo-2,3-dihydropyridazine-4-carboxamide]
1.66e-07 M	> 2e-05 M	O=C(NC1(CO)CCCCC1)c1cc(-c2ccc(Cl)cc2)nn(-c2cccc(F)c2)c1=O [Example 215, 6-(4-Chlorophenyl)-2-(3-fluorophenyl)-N-[1-(hydroxymethyl)cyclohexyl]-3-oxo-2,3-dihydropyridazine-4-carboxamide]
3.38e-06 M	> 2e-05 M	O=C(N[C@@H](CO)Cc1ccccc1)c1cc(-c2ccc(Cl)cc2)nn(-c2cccc(F)c2)c1=O [Example 219, (+)-6-(4-Chlorophenyl)-2-(3-fluorophenyl)-N-[(2R)-1-hydroxy-3-phenylpropan-2-yl]-3-oxo-2,3-dihydropyridazine-4-carboxamide]
3.35e-07 M	> 2e-05 M	O=C(NC(CO)CO)c1cc(-c2ccc(Cl)cc2)nn(-c2cccc(F)c2)c1=O [Example 228, 6-(4-Chlorophenyl)-N-(1,3-dihydroxypropan-2-yl)-2-(3-fluorophenyl)-3-oxo-2,3-dihydropyridazine-4-carboxamide]
1.56e-06 M	> 2e-05 M	CN1CCC(O)(CNC(=O)c2cc(-c3ccc(Cl)cc3)nn(-c3cccc(F)c3)c2=O)CC1 [Example 234, 6-(4-Chlorophenyl)-2-(3-fluorophenyl)-N-[(4-hydroxy-1-methylpiperidin-4-yl)methyl]-3-oxo-2,3-dihydropyridazine-4-carboxamide]
9.88e-08 M	> 2e-05 M	C[C@H](CO)NC(=O)c1cc(-c2ccc(C(F)(F)F)cc2)nn(-c2cccc(F)c2)c1=O [Example 238, 2-(3-Fluorophenyl)-N-[(2R)-1-hydroxypropan-2-yl]-3-oxo-6-[4-(trifluoromethyl)phenyl]-2,3-dihydropryridazine-4-carboxamide]
6.43e-06 M	> 2e-05 M	O=C(N[C@@H](CO)Cc1ccccc1)c1cc(-c2ccc(C(F)(F)F)cc2)nn(-c2cccc(F)c2)c1=O [Example 252, 2-(3-Fluorophenyl)-N-[(2R)-1-hydroxy-3-phenylpropan-2-yl]-3-oxo-6-[4-(trifluoromethyl)phenyl]-2,3-dihydropyridazine-4-carboxamide]
4.31e-08 M	> 2e-05 M	O=C(N[C@H]1COCC[C@H]1O)c1cc(-c2ccc(Cl)cc2)nn(-c2cccc(F)c2)c1=O [Example 273, 1,5-Anhydro-2-({[6-(4-chlorophenyl)-2-(3-fluorophenyl)-3-oxo-2,3-dihydropyridazin-4-yl]carbonyl}amino)-2,4-dideoxy-D-erythro-pentitol]
1.92e-08 M	> 2e-05 M	O=C(NC(CO)(CO)C(F)(F)F)c1cc(-c2ccc(Cl)cc2)nn(-c2cccc(F)c2)c1=O [Example 280, 6-(4-Chlorophenyl)-2-(3-fluorophenyl)-3-oxo-N-[1,1,1-trifluoro-3-hydroxy-2-(hydroxymethyl)propan-2-yl]-2,3-dihydropyridazine-4-carboxamide]
